| Structure (SMILES) | melting point [°C] |
| --- | --- |
| Cn1cc(C2=C(c3c4n(c5ccccc35)CCN(C(=O)Oc3ccccc3)C4)C(=O)NC2=O)c2ccccc21 | 160 to 165 |
| CNC(=S)C1(c2cccc(C)n2)CCCCS1 (stereo unspecified) | 139 |
| CN(C)C(=O)Sc1ccccc1C(=O)c1ccc(C#N)cc1 | 102 |
| CCCCCCOc1ccc(-c2cc(CBr)ccc2CBr)cc1 | 38.5 to 40.5 |
| O=C(O)c1cc2ccnc(N(Cc3ccccc3)Cc3ccccc3)c2[nH]1 | 114 to 120 |
| COC(=O)c1ccc(Nc2ccc(C#N)cc2N)cc1 | 164 to 165 |
| COc1nc(N)nc2c1ncn2[C@H]1C[C@H](O)[C@@H](CO)O1 | 155 to 157 |
| O=c1[nH]c2cc(Cl)ccc2c(=O)c2sccc12 | > 280 |
| O=C(Nc1cc(O)c(Cl)cc1F)OCc1ccccc1 | 70 to 72 |
| Cc1cc(C)cc(-c2[nH]c3ccc(C(=O)O)cc3c2CCN(CCCCc2ccc(NS(C)(=O)=O)cc2)C(=O)OCc2ccccc2)c1 | 212 to 213 |
| CC(C)SC1=N/C(=C\c2c[nH]c3ncc(Cl)cc23)C(=O)N1 | 291 to 293 |
| CC(C)(C)OC(=O)Nc1cc(Cl)cc(C(F)(F)F)c1 | 91 to 92 |
| Cn1c(C(F)(F)F)cc(=O)n(Cc2cc(I)cc(Cl)c2Cl)c1=O | 142 to 144 |
| CCCCn1cc(C2CCN(CCOc3ccccc3C(=O)O)CC2)c2ccncc21 | 158 to 159 |
| C=C(C)n1cc(C(=O)O)c(=O)c2cc(F)c(Cl)cc21 | 229 |
| NC(=O)COc1ccccc1N | 117 |
| Clc1ccc(C2OC(c3ccncc3)=Nc3ccc(Cl)cc32)cc1 (stereo unspecified) | 140 to 141 |
| CC(C)n1cc(C(=O)O)c(=O)c2cc(F)c(F)c(F)c21 | 256 to 260 |
| Cc1cc(SC2=C(O)CC(CCC(C)C)(C3CCCC3)OC2=O)c(C(C)(C)C)cc1CO (stereo unspecified) | 74 to 77 |
| CCCCc1oc2ccccc2c1C(=O)c1ccc(O)cc1 | 119 |
| Cc1nc(N2CCCC(C(O)c3ccccc3)C2=O)sc1C(=O)NCc1ccccc1 (stereo unspecified) | 74 to 75 |

| Structure (SMILES) | melting point [°C] |
| --- | --- |
| COc1ccc(/C(=C\C=C\C(=O)O)c2ccccc2)cc1 | 184 to 185 |
| O=C(NCCO)c1cnc(NCCO)cc1Nc1ccc(I)cc1F | > 250 |
| CCCCOC(=O)CNC(=O)c1ncc(C(=O)OCCCC)cc1OC | 80 to 81 |
| CC(C)(CNC(=O)C(O)CO)c1ccc(C(=O)Nc2cn3cc(Cl)ccc3n2)cc1 (stereo unspecified) | 228 to 229 |
| O=C/C(=C/c1ccccc1)c1ccc(Cl)cc1 | 70 to 75 |
| CC(=O)NC(C)c1ccc(CN2CCN(c3nccs3)CC2)cc1 (stereo unspecified) | 136 to 137 |
| CC12CCC3C(CCC4=CC(=O)C=C(CO)C43C)C1CCC2=O (stereo unspecified) | 201 to 202 |
| CCCCC[C@H]1CC[C@H](c2ccc(C#C[Si](C)(C)C)nn2)CC1 | 118 to 119 |
| CCOC(=O)ON=C1Cc2ccccc2N(C(N)=O)c2ccccc21 | 189 to 190 |
| Oc1cccc(N2CCCC2)n1 | 154 to 158 |
| O=C(Oc1ccccc1)N1CCC(S(=O)(=O)c2ccccc2)C1 (stereo unspecified) | 84 to 85 |
| Nc1cccc(CC(=O)O)c1 | 116 to 121 |
| CCOC(=O)c1cc(=O)cc(C)o1 | 35 to 38 |
| Clc1ccc(N2CCN(Cc3n[nH]c4c(Cl)cccc34)CC2)cc1 | 152 to 154 |
| O=C(Nc1ccc(-c2cnc(-c3ccc(NC(=O)c4c(F)c(F)c(F)c(F)c4F)cc3)[nH]2)cc1)c1cccnc1 | 265 to 266 |
| Cc1ccc2c(c1)oc1c(C(=O)NN3CCCC3)nn(-c3ccc(Cl)cc3Cl)c12 | 90 to 92 |
| CSc1ccccc1CNC(=O)[C@@H]1CCCN(c2cccc3c2C(=O)N(Cc2ccncc2)C3=O)C1 | 216 to 217 |
| CCc1cc(O)n2ncnc2n1 | 212 |
| O=C(O)CCCC[C@@H]1SC[C@H]2[C@@H]1N(Cc1ccccc1)C(=O)N2Cc1ccccc1 | 88 to 89 |
| O=C1NC2(NC1=O)Oc1ccccc1O2 | 202 |
| CC(C)(Cl)CC1NC(=O)c2ccccc21 (stereo unspecified) | 153 to 155 |

| Structure (SMILES) | melting point [°C] |
| --- | --- |
| CCN(CC)CCNC(=O)c1ccc(-c2n[nH]c3c2Cc2ccccc2-3)cc1 | 172 to 174 |
| CC1=CCC(C(=O)O)CC1 (stereo unspecified) | 95 |
| CCOC(=O)CNC(=O)c1nc2ccc(NCCCN3CCC(OC(c4ccccc4)c4ccccc4)CC3)nn2n1 | 175 to 177 |
| CC(N)=Nc1ccc(Cl)cc1Cc1ccccc1F | 115 to 119 |
| NC(=S)Nc1cc(Cl)cc(Cl)c1 | 180 |
| CCc1ccc(/C=C/c2nc(COc3ccc(CCCCn4ccnc4CCO)cc3)co2)cc1 | 94 to 95 |
| O=C(NC1CCCCC1)NS(=O)(=O)c1ccc(CCNC(=O)N2Cc3ccccc3C2=O)cc1 | 211 to 213 |
| Cc1ccc(N)c(C(=O)c2ccc(F)cc2)c1 | 70 to 71.5 |
| CCCN1C(=O)c2ccccc2C1(SCc1ccccc1)c1ccc(Cl)cc1 (stereo unspecified) | 132 to 133 |
| CC(=O)OC[C@H]1OC(OC(C)=O)[C@H](OC(C)=O)[C@@H](F)[C@@H]1OC(C)=O (stereo partly specified) | 115 to 121 |
| CN(O)C(=O)NCCCCCOc1ccc(-c2ccccc2)cc1 | 153 to 154 |
| CC(C)(C)c1ocnc1/C=C1\NC(=O)[C@H](Cc2ccccc2)NC1=O | 52 to 56 |
| O=C(O)CN1C(=O)C(NC(=O)[C@@H](S)Cc2ccccc2)CCC2CC=CC=C21 (stereo partly specified) | 107 to 111 |
| C=C(C)CNc1cc(C)nc2cn[nH]c12 | 161 to 164 |
| Cc1ccccc1N1CCN(CCCCCC(=O)O)CC1 | 125 |
| CN(Cc1ccc(NC(=O)c2coc3c2C(=O)CCC3)cc1)C(=O)OC(C)(C)C | 150 |
| OC1(C#Cc2ccc(OCCOc3ccccc3)cc2)CN2CCC1CC2 (stereo unspecified) | 207 to 208 |
| CCC(O)(CC)CCN1CCC(c2noc3cc(F)ccc23)CC1 | 50 to 53 |
| O=C(c1ccc(F)cc1)c1ccc(C#Cc2ccc(F)cc2)cc1 | 190 to 191 |

More lines, now with the values ahead:

| melting point [°C] | Structure (SMILES) |
| --- | --- |
| 107 to 109 | COc1ccc(C(=O)Nc2ccccc2)cc1NS(=O)(=O)c1ccccc1Cl |
| 106 to 110 | Cc1cccc(-c2[nH]c(C(C)C)nc2-c2ccc(F)c(-c3cc[nH]c3)c2)n1 |
| 87 | CCOC(O)(OCC)C(Cc1ccc2ccccc2c1)NC(=O)OC(C)(C)C (stereo unspecified) |
| 51 to 53 | CCCS(=O)(=O)Oc1c(C(=O)c2nn(C)c(=O)n(-c3ccccc3)c2=O)cnn1C(C)C |
| 295 | NC(=O)c1cccc(-c2nc(=O)c3ccccc3s2)n1 |
| 176 to 177 | Cc1noc2cc3c(cc12)C1(CO3)C(=O)N(Cc2cccnc2)c2ccccc21 (stereo unspecified) |
| 217 to 220 | COc1cc2ncc(CO)c(-c3ccnc(NN)c3)c2cc1OC |
| 90 to 94 | COC(=O)CCc1cc2cc(Cl)ccc2n1S(=O)(=O)c1ccc(C(C)C)cc1 |
| 140 | COc1cc(OC)nc(Oc2cccc(Oc3nc(OC)cc(OC)n3)c2C)n1 |
| 186 to 188 | CCCCc1nc2c(N)nc3ccc(OCC(=O)N(CC)CC)cc3c2n1C |
| 148 | CCn1c2ccc(C(=O)CC(C)=O)cc2c2cc(C(=O)c3ccccc3C)ccc21 |
| 234 | Nc1nc(Nc2cccc(Br)c2)c2c(n1)[nH]c1ccccc12 |
| 115 to 118 | N#Cc1nc(Cl)c(Oc2ccccc2)nc1C#N |
| 230 to 231 | O=C(c1ccc(F)cc1)N1Cc2c(-c3ccc(F)cc3)ncn2-c2ccccc21 |
| 59 to 61 | COC(=O)C1Cc2cc(OC)ccc2N1 (racemic) |
| 198 | O=C(Nc1ccc2ccc(-c3ccc(F)cc3)nc2n1)c1ccc(C(F)(F)F)cc1 |
| 173 to 174 | CC(=O)Nc1ccc(-c2cc(C(C)(C)C)c(O)c(C(C)(C)C)c2)cc1 |
| 138 to 140 | COc1ccc(C(=O)c2c(N)sc3c2CCN(C(=O)c2ccc(Cl)cc2)C3)cc1OC |
| 204 to 206 | Cc1oc(-c2ccccc2)nc1CCOc1ccc(C[C@H](NC(=O)C=Cc2cccc(Cl)c2)C(=O)O)cc1 |
| 109 to 112 | COC(=O)CCCc1cc2cc(Cl)ccc2n1S(=O)(=O)c1ccccc1 |

| melting point [°C] | Structure (SMILES) |
| --- | --- |
| 38.4 | CCOc1cc(C)c(CCc2ccc(OC)c(OC)c2)cc1OC |
| 95 to 100 | CS(=O)(=O)c1ccc(C(CC2CCCC2)C(=O)Nc2ccc3ccccc3n2)cc1Br (stereo unspecified) |
| > 310 | CN(C)c1ccn2nc(S(=O)(=O)Nc3c(Cl)cccc3Cl)nc2n1 |
| 91 to 92 | CCOc1ccc(C2=NN(Cc3ccccc3)C(=O)[C@H]3CCCC[C@@H]23)cc1OCC (relative stereo) |
| 99 to 102 | CCOC(=O)c1cc(Oc2cc(Cl)c(Cl)cc2Cl)ccc1[N+](=O)[O-] |
| 271 to 274 | Cc1c2c(c(C#N)c(=O)n1C)-c1ccccc1C2=O |
| 169 to 170 | COC(=O)c1nn(-c2cccc(C(F)(F)F)c2)cc(OC)c1=O |
| 137 to 138 | CCCCCc1nc2c(N)nc3ccccc3c2n1CCCCNS(C)(=O)=O |
| 184 | Cc1nn2c(C(F)(F)F)cc(-c3ccc(C(F)(F)F)cc3)nc2c1C#N |
| 173 | Cc1cc(C(=O)O)ccc1C1=CCCc2ccccc21 |
| 199 to 200 | CC(C)c1ccc(NC(=O)c2ccc(C(=O)O)nc2)cc1C(C)C |
| 144 to 145 | COc1cc(Nc2nccc(-c3ccc(N4CCCNCC4)nc3)n2)cc(OC)c1OC |
| 158 | COc1ccnc2c1C(=O)c1c(-c3ccccc3NC(=O)C(F)(F)F)ccnc1C2=O |
| 213 to 220 | CN1CCC(CNc2ncc3cc(-c4ccccc4Cl)c(=O)[nH]c3n2)CC1 |
| 264 to 269 | NCc1ccc(-n2c(-c3cccnc3N)nc3ccc(-c4cn[nH]c4)nc32)cc1 |
| > 320 | Cc1cc(F)cc2c1-c1ccc(F)cc1C21NC(=O)NC1=O (stereo unspecified) |
| 162 to 163 | COc1ccc(S(=O)(=O)Nc2ccccc2NC(=O)c2ccncc2)cc1 |
| 210 to 211 | Cc1csc(-c2nc(=O)c3ccccc3s2)n1 |
| 205 to 208 | O=C1Nc2ccc(Cl)cc2C1(O)c1ccccc1C(F)(F)F (stereo unspecified) |
| 107 to 116 | Cc1ccc(C(=O)NCc2cc(C(C)C)no2)cc1 |

From a melting point compilation (Tetko et al.; mined from patent text by program, amines drawn as free bases though some values may be those of a salt)
